Data: patent US12180193B2, “Accelerating fibrosarcoma protein degrading compounds and associated methods of use” (Arvinas Operations, Inc., priority 2020, dated 2024)

Experiments:
BRAF V600E = target: T1, BRAF V600E (Homo sapiens, UniProt P15056, V600E); assay: Cellular assay of target protein degradation, T-Rex 293 cells stably transfected with HA-BRAF_V600E (HA immunofluorescence, high content imaging); assay type: cell-based; conditions: T-Rex 293 HA-BRAF V600E; for DC50: half maximal degradation, read-out: BRaf V600E DC50; for Dmax: maximum degradation observed
T1 construct: expressed in transfected cells
T1 sequence (P15056 whole entry V600E): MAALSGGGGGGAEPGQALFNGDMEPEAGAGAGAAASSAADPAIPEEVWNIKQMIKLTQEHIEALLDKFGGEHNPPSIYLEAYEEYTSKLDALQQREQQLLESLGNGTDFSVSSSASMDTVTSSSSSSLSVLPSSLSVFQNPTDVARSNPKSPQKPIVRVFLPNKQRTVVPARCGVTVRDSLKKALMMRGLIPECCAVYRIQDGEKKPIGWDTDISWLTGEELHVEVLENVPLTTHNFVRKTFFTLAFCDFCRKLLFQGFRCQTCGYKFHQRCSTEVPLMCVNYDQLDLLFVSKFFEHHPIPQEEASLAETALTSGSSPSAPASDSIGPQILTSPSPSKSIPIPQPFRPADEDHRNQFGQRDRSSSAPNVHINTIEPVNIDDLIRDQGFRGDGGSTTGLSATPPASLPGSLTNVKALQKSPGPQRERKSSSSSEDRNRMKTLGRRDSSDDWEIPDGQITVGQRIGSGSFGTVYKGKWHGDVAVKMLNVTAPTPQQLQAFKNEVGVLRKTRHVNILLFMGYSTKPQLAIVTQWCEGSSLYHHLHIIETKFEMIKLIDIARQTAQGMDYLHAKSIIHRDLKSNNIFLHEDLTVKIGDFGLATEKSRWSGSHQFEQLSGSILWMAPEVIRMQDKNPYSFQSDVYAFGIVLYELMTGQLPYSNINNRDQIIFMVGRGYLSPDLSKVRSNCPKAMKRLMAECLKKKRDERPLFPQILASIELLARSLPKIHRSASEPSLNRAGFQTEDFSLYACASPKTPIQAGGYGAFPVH
Outline: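 Read-out is anti-HA immunofluorescence quantified by high-content imaging, giving half-maximal degradation concentration (DC50) and maximum degradation (Dmax, percent of control). Cells expressed the construct under 1 ng/mL doxycycline and received compound (1 μM to 0.1 nM final, 0.1% DMSO) for 24 h at 37 °C.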

BRAF G466V = target: T2, BRAF G466V (Homo sapiens, UniProt P15056, G466V); assay: Cellular assay of target protein degradation, T-Rex 293 cells stably transfected with HA-BRAF G466V (HA immunofluorescence, high content imaging); assay type: cell-based; conditions: T-Rex 293 HA-BRAF G466V; for DC50: half maximal degradation, read-out: BRaf G466V DC50; for Dmax: maximum degradation observed
T2 construct: expressed in transfected cells
T2 sequence (P15056 whole entry G466V): as the sequence (P15056 whole entry V600E) above, with G466V, E600V counted along it
Outline: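 First, stably transfected T-Rex 293 cells were plated with 0.75 ng/mL doxycycline and grown for 24 hours. Next, compound (final 30 nM to 3 pM, 0.1% DMSO) was added for another 24 hours at 37° C. Finally, cells were fixed, stained for HA and imaged.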

SMILES | DC50 (BRAF V600E) | Dmax (BRAF V600E) | DC50 (BRAF G466V) | Dmax (BRAF G466V)
CN(CC1CCN(c2ccc(-c3cnc4[nH]cc(C(=O)c5c(F)ccc(NS(=O)(=O)N6CC[C@@H](F)C6)c5F)c4c3)cc2)CC1)[C@H]1C[C@@H](Oc2ccc3c(c2)CN(C2CCC(=O)NC2=O)C3=O)C1 (stereo partly drawn) [Compound 155, (3R)-N-[2,4-difluoro-3-(5-{4-[4-({methyl[(1s,3s)-3-{[2-(2,6-dioxopiperidin-3-yl)-1-oxo-2,3-dihydro-1H-isoindol-5-yl]oxy}cyclobutyl]amino}methyl)piperidin-1-yl]phenyl}-1H-pyrrolo[2,3-b]pyridine-3-carbonyl)phenyl]-3-fluoropyrrolidine-1-sulfonamide] | 5 to 50 nM | 35 to 70% | 1 to 10 nM | > 70%
O=C1CCN(c2ccc(N3CCC(CN4CC5(C4)CN(c4ccc(-c6cnc7[nH]cc(C(=O)c8c(F)ccc(NS(=O)(=O)N9CC[C@@H](F)C9)c8F)c7c6)cc4)C5)CC3)cc2F)C(=O)N1 [Compound 156, (3R)-N-[3-(5-{4-[6-({1-[4-(2,4-dioxo-1,3-diazinan-1-yl)-3-fluorophenyl]piperidin-4-yl}methyl)-2,6-diazaspiro[3.3]heptan-2-yl]phenyl}-1H-pyrrolo[2,3-b]pyridine-3-carbonyl)-2,4-difluorophenyl]-3-fluoropyrrolidine-1-sulfonamide] | 5 to 50 nM | 35 to 70% | 1 to 10 nM | > 70%
O=C1CCC(N2Cc3cc(C4CCN(CC5CCN(c6ccc(-c7cnc8[nH]cc(C(=O)c9c(F)ccc(NS(=O)(=O)N%10CC[C@@H](F)C%10)c9F)c8c7)cc6)CC5)CC4)c(F)cc3C2=O)C(=O)N1 (stereo partly drawn) [Compound 157, (3R)-N-[3-(5-{4-[4-({4-[2-(2,6-dioxopiperidin-3-yl)-6-fluoro-1-oxo-2,3-dihydro-1H-isoindol-5-yl]piperidin-1-yl}methyl)piperidin-1-yl]phenyl}-1H-pyrrolo[2,3-b]pyridine-3-carbonyl)-2,4-difluorophenyl]-3-fluoropyrrolidine-1-sulfonamide] | 5 to 50 nM | 35 to 70% | 1 to 10 nM | > 70%
COc1cc(C2CCN(CC3CCN(c4ccc(-c5cnc6[nH]cc(C(=O)c7c(F)ccc(NS(=O)(=O)N8CC[C@@H](F)C8)c7F)c6c5)cc4F)CC3)CC2)cc2c1C(=O)N(C1CCC(=O)NC1=O)C2 (stereo partly drawn) [Compound 163, (3R)-N-[3-(5-{4-[4-({4-[2-(2,6-dioxopiperidin-3-yl)-7-methoxy-1-oxo-2,3-dihydro-1H-isoindol-5-yl]piperidin-1-yl}methyl)piperidin-1-yl]-3-fluorophenyl}-1H-pyrrolo [2,3-b]pyridine-3-carbonyl)-2,4-difluorophenyl]-3-fluoropyrrolidine-1-sulfonamide] | 5 to 50 nM | 35 to 70% | 1 to 10 nM | > 70%
COc1cc(C2CCN(CC3CCN(c4ccc(-c5cnc6[nH]cc(C(=O)c7c(F)ccc(NS(=O)(=O)N8CC[C@@H](F)C8)c7F)c6c5)cn4)CC3)CC2)cc2c1C(=O)N(C1CCC(=O)NC1=O)C2 (stereo partly drawn) [Compound 164, (3R)-N-[3-(5-{6-[4-({4-[2-(2,6-dioxopiperidin-3-yl)-7-methoxy-1-oxo-2,3-dihydro-1H-isoindol-5-yl]piperidin-1-yl}methyl)piperidin-1-yl]pyridin-3-yl}-1H-pyrrolo[2,3-b]pyridine-3-carbonyl)-2,4-difluorophenyl]-3-fluoropyrrolidine-1-sulfonamide] | 5 to 50 nM | 35 to 70% | < 1 nM | > 70%
CN(CC1CCN(c2ccc3c(c2)CN(C2CCC(=O)NC2=O)C3=O)CC1)[C@H]1C[C@@H](Oc2ccc(-c3cnc4[nH]cc(C(=O)c5c(F)ccc(NS(=O)(=O)N6CC[C@@H](F)C6)c5F)c4c3)cc2)C1 (stereo partly drawn) [Compound 167, (3R)-N-[2,4-difluoro-3-(5-{4-[(1s,3s)-3-[({1-[2-(2,6-dioxopiperidin-3-yl)-1-oxo-2,3-dihydro-1H-isoindol-5-yl]piperidin-4-yl}methyl)(methyl)amino]cyclobutoxy)phe-nyl}-1H-pyrrolo[2,3-b]pyridine-3-carbonyl)phenyl]-3-fluoropyrrolidine-1-sulfonamide] | 5 to 50 nM | 35 to 70% | 1 to 10 nM | 35 to 70%
O=C1CCC(c2ccc(C3CCN(CC4CCN(c5ccc(-c6cnc7[nH]cc(C(=O)c8c(F)ccc(NS(=O)(=O)N9CC[C@@H](F)C9)c8F)c7c6)cc5)CC4)CC3)cc2F)C(=O)N1 (stereo partly drawn) [Compound 168, (3R)-N-[3-(5-{4-[4-({4-[4-(2,6-dioxopiperidin-3-yl)-3-fluorophenyl]piperidin-1-yl}methyl)piperidin-1-yl]phenyl}-1H-pyrrolo[2,3-b]pyridine-3-carbonyl)-2,4-difluorophenyl]-3-fluoropyrrolidine-1-sulfonamide] | 5 to 50 nM | < 35% | 1 to 10 nM | > 70%

Now from value to compound:

DC50 (BRAF V600E) | Dmax (BRAF V600E) | DC50 (BRAF G466V) | Dmax (BRAF G466V) | SMILES
5 to 50 nM | 35 to 70% | 1 to 10 nM | > 70% | O=C1CCC(N2Cc3cc(N4CC5(CN(CCOc6ccc(-c7cnc8[nH]cc(C(=O)c9c(F)ccc(NS(=O)(=O)N%10CC[C@@H](F)C%10)c9F)c8c7)cn6)C5)C4)ccc3C2=O)C(=O)N1 (stereo partly drawn) [Compound 158, (3R)-N-(3-{5-[6-(2-{6-[2-(2,6-dioxopiperidin-3-yl)-1-oxo-2,3-dihydro-1H-isoindol-5-yl]-2,6-diazaspiro[3.3]heptan-2-yl}ethoxy)pyridin-3-yl]-1H-pyrrolo[2,3-b]pyridine-3-carbonyl}-2,4-difluorophenyl)-3-fluoropyrrolidine-1-sulfonamide]
> 500 nM |  | > 30 nM |  | O=C1CCC(N2Cc3cc(N4CC(C5CN(c6ccc(-c7cnc8[nH]cc(C(=O)c9c(F)ccc(NS(=O)(=O)N%10CC[C@@H](F)C%10)c9F)c8c7)cc6)C5)C4)ccc3C2=O)C(=O)N1 (stereo partly drawn) [Compound 159, (3R)-N-{3-[5-(4-{1′-[2-(2,6-dioxopiperidin-3-yl)-1-oxo-2,3-dihydro-1H-isoindol-5-yl]-[3,3′-biazetidin]-1-yl}phenyl)-1H-pyrrolo[2,3-b]pyridine-3-carbonyl]-2,4-difluorophenyl}-3-fluoropyrrolidine-1-sulfonamide]
< 5 nM | 35 to 70% | < 1 nM | > 70% | O=C1CC[C@H](N2Cc3cc(C4CCN(CC5CCN(c6ccc(-c7cnc8[nH]cc(C(=O)c9c(F)ccc(NS(=O)(=O)N%10CC[C@@H](F)C%10)c9F)c8c7)cc6)CC5)CC4)ccc3C2=O)C(=O)N1 [Compound 160, (3R)—N-[3-[5-[4-[4-[[4-[2-[(3S)-2,6-dioxo-3-piperidyl]-1-oxo-isoindolin-5-yl]-1-piperidyl]methyl]-1-piperidyl]phenyl]-1H-pyrrolo[2,3-b]pyridine-3-carbonyl]-2,4-difluoro-phenyl]-3-fluoro-pyrrolidine-1-sulfonamide]
5 to 50 nM | 35 to 70% | < 1 nM | > 70% | O=C1CC[C@@H](N2Cc3cc(C4CCN(CC5CCN(c6ccc(-c7cnc8[nH]cc(C(=O)c9c(F)ccc(NS(=O)(=O)N%10CC[C@@H](F)C%10)c9F)c8c7)cc6)CC5)CC4)ccc3C2=O)C(=O)N1 [Compound 161, (3R)-N-{3-[5-(4-{4-[(4-{2-[(3R)-2,6-dioxopiperidin-3-yl]-1-oxo-2,3-dihydro-1H-isoindol-5-yl}lpiperidin-1-yl)methyl]piperidin-1-yl}phenyl)-1H-pyrrolo[2,3-b]pyridine-3-carbonyl]-2,4-difluorophenyl}-3-fluoropyrrolidine-1-sulfonamide]
50 to 500 nM | < 35% | 1 to 10 nM | 35 to 70% | O=C1CCC(N2Cc3cc(N4CCC(CN5CCN(C6(c7ccc(-c8cnc9[nH]cc(C(=O)c%10c(F)ccc(NS(=O)(=O)N%11CC[C@@H](F)C%11)c%10F)c9c8)cc7)CC6)CC5)CC4)ccc3C2=O)C(=O)N1 (stereo partly drawn) [Compound 162, (3R)-N-{3-[5-(4-{1-[4-({1-[2-(2,6-dioxopiperidin-3-yl)-1-oxo-2,3-dihydro-1H-isoindol-5-yl]piperidin-4-yl}methyl)piperazin-1-yl]cyclopropyl}phenyl)-1H-pyrrolo[2,3-b]pyridine-3-carbonyl]-2,4-difluorophenyl}-3-fluoropyrrolidine-1-sulfonamide]
5 to 50 nM | 35 to 70% | 1 to 10 nM | > 70% | O=C1CC[C@H](N2Cc3cc(OC[C@@H](O)CN4CC5(C4)CN(c4ccc(-c6cnc7[nH]cc(C(=O)c8c(F)ccc(NS(=O)(=O)N9CC[C@@H](F)C9)c8F)c7c6)cc4)C5)ccc3C2=O)C(=O)N1 [Compound 165, (3R)-N-{3-[5-(4-{6-[(2S)-3-({2-[(3S)-2,6-dioxopiperidin-3-yl]-1-oxo-2,3-dihydro-1H-isoindol-5-yl}oxy)-2-hydroxypropyl]-2,6-diazaspiro[3.3]heptan-2-yl}phenyl)-1H-pyrrolo[2,3-b]pyridine-3-carbonyl]-2,4-difluorophenyl}-3-fluoropyrrolidine-1-sulfonamide]
5 to 50 nM | 35 to 70% | 1 to 10 nM | > 70% | O=C1CC[C@@H](N2Cc3cc(OC[C@@H](O)CN4CC5(C4)CN(c4ccc(-c6cnc7[nH]cc(C(=O)c8c(F)ccc(NS(=O)(=O)N9CC[C@@H](F)C9)c8F)c7c6)cc4)C5)ccc3C2=O)C(=O)N1 [Compound 166, (3R)-N-{3-[5-(4-{6-[(2)S-3-({2-[(3R)-2,6-dioxopiperidin-3-yl]-1-oxo-2,3-dihydro-1H-isoindol-5-yl}oxy)-2-hydroxypropyl]-2,6-diazaspiro[3.3]heptan-2-yl}phenyl)-1H-pyrrolo[2,3-b]pyridine-3-carbonyl]-2,4-difluorophenyl}-3-fluoropyrrolidine-1-sulfonamide]
